Source: ChEMBL document CHEMBL4038320 (J Med Chem, 2017)

Tests used:
[1] = molecular target: Rho-associated protein kinase 2 (Homo sapiens, UniProt O75116); test: Inhibition of recombinant human N-terminal GST-tagged ROCK2 catalytic domain (1 to 553 residues) expressed in baculovirus expression system using STK 2-biotin as substrate measured after 60 mins by HTRF/TR-FRET assay
[2] = molecular target: Protein kinase C alpha type (Homo sapiens, UniProt P17252); test: Inhibition of human PKCalpha active using MBP as substrate after 60 mins in presence of [gamma-32]ATP by scintillation counting
CYP3A4 = CYP3A4 (Homo sapiens, UniProt P08684); test: Inhibition of CYP3A4 (unknown origin) at 10 uM; assay type: ADME
CYP3A4, sequence (P08684 whole entry): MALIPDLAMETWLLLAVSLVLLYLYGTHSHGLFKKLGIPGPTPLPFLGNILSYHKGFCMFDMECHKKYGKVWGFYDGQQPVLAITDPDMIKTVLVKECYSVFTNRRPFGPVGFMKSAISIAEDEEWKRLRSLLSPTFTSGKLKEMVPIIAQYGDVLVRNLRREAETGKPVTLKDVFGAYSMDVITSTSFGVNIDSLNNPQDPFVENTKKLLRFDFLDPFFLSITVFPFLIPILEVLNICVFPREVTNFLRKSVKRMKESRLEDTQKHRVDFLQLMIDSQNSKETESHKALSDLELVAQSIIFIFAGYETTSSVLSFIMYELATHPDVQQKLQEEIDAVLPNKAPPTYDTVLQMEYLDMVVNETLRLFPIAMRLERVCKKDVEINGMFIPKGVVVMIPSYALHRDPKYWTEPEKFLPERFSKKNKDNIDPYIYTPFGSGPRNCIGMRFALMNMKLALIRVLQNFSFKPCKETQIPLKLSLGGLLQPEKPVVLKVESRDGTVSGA

Rho-associated protein kinase 2, sequence (O75116 whole entry, the tested form may be a part): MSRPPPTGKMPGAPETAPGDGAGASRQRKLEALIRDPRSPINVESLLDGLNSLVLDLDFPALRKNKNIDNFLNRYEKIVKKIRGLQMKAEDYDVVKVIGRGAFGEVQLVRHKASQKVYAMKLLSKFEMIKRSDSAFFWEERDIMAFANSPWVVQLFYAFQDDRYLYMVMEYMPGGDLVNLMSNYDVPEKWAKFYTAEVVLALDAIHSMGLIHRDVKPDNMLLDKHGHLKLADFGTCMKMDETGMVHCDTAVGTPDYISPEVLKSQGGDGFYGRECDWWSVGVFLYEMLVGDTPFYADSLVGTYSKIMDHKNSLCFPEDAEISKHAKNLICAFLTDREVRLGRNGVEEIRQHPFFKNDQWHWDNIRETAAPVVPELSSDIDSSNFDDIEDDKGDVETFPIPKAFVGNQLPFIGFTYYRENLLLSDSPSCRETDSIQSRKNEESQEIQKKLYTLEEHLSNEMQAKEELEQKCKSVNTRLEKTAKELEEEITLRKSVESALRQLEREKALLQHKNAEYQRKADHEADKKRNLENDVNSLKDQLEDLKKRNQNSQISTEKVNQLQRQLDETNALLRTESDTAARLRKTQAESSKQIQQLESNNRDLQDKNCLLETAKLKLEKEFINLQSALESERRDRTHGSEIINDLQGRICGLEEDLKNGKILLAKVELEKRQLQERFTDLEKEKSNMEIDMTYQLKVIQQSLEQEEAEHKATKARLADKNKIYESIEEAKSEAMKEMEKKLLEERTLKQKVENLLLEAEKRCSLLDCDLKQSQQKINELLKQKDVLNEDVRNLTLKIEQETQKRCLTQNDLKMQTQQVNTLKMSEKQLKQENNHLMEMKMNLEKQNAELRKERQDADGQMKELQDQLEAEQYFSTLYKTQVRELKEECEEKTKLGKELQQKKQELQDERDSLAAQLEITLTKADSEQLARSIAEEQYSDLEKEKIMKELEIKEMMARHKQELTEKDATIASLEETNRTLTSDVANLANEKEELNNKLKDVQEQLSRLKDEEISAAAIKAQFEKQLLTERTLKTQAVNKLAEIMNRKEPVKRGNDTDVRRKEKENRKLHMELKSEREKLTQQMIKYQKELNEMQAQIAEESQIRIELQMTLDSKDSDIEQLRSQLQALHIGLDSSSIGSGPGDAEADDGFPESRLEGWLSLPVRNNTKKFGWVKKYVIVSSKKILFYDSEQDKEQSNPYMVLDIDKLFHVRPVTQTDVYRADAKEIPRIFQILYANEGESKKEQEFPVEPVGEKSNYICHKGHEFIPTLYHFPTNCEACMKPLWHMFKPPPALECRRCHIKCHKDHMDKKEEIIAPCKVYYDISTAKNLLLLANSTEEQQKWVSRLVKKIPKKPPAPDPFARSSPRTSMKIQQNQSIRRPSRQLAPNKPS

Structure (SMILES) | IC50 [1] [µM] | IC50 [2] [µM] | inhibition at 10 µM (CYP3A4) [%]
Cc1cc(-c2n[nH]c(CNc3ccc(Cl)cc3)n2)ccn1 | 7.1 | > 10 | 47
O=C(NCc1ccccc1)c1cccc(NCc2cc(-c3ccncc3)no2)c1 | 0.13 | 8.3 | 92
COc1ccc(CNC(=O)c2cccc(NCc3nnc(-c4ccncc4)[nH]3)c2)cc1 | 0.027 | 7.1 | 91
CCCn1c(CNc2cccc(C(=O)NCc3ccccc3C(F)(F)F)c2)nnc1-c1ccncn1 | 0.14 | 1.2 | 81
O=C(NCc1ccccc1)c1cccc(NCc2csc(-c3ccncc3)n2)c1 | 0.12 | > 10 | 87
O=S(=O)(Cc1ccccc1)c1cccc(NCc2nc(-c3ccncc3)n[nH]2)c1 | 1.1 | – | 86
CN(Cc1ccccc1)C(=O)c1cccc(NCc2nc(-c3ccncc3)n[nH]2)c1 | 2.2 | > 10 | 79
Cn1c(CNc2cccc(C(=O)NCc3c(F)cccc3F)c2)nnc1-c1ccnc(NCc2ccccc2)c1 | > 10 | > 10 | 47
O=C(NCCc1ccccc1)c1cccc(NCc2nc(-c3ccncc3)n[nH]2)c1 | 0.047 | > 10 | 95
OCCc1cnccc1-c1n[nH]c(CNc2ccc(Cl)cc2)n1 | > 10 | – | 100
O=C(NCCCc1ccccc1)c1cccc(NCc2nc(-c3ccncc3)n[nH]2)c1 | 0.1 | > 10 | 94
c1ccc(CNCc2nc(-c3ccncc3)n[nH]2)cc1 | 5.1 | – | 74
O=C(Cc1cccc(NCc2nc(-c3ccncc3)n[nH]2)c1)NCc1ccccc1 | 0.48 | > 10 | 92
NS(=O)(=O)c1cccc(NCc2nc(-c3ccncc3)n[nH]2)c1 | 0.16 | > 10 | 25
COc1ccc(NCc2nc(-c3ccncc3)n[nH]2)cc1 | 0.28 | > 10 | 95
COc1cccc(NCC(=O)N/N=C/c2ccncc2)c1 | 0.062 | – | –
c1ccc(Oc2cccc(NCc3nc(-c4ccncc4)n[nH]3)c2)cc1 | > 10 | > 10 | 100
O=C(NCc1ccccc1C(F)(F)F)c1cccc(NCc2nnc(-c3ccncc3)n2CCO)c1 | 0.32 | 7.6 | 79
O=C(NCc1ccccc1)c1cccc(NCc2nnc(-c3ccncc3)o2)c1 | 0.32 | > 10 | 43
Cc1cnccc1-c1n[nH]c(CNc2cccc(C(=O)NCc3ccccc3)c2)n1 | 0.094 | > 10 | 88
O=C(NCc1ccccc1)c1cccc(NCc2cc(-c3ccncc3)n[nH]2)c1 | 0.06 | 7.2 | 99
Cn1c(CNc2cccc(C(=O)NCc3c(F)cccc3F)c2)nnc1-c1ccnc(NCCCc2ccccc2)c1 | > 10 | 2.5 | 64
O=C(NCc1ccccc1)c1cccc(NCc2nc(-c3ccncc3)cs2)c1 | 0.022 | > 10 | 92
COc1ccccc1CNC(=O)c1cccc(NCc2nnc(-c3ccncc3)[nH]2)c1 | 0.085 | 3.3 | 95
O=C(NCc1ccccc1)c1cccc(NCc2cc(-c3ccncc3)c[nH]2)c1 | 0.052 | > 10 | 100

Structure (SMILES) | IC50 [1] [µM] | IC50 [2] [µM] | inhibition at 10 µM (CYP3A4) [%]
CC(=O)Nc1cc(-c2nnc(CNc3cccc(C(=O)NCc4ccccc4C(F)(F)F)c3)n2C)ccn1 | > 10 | – | 56
NC(=O)OCc1cnccc1-c1n[nH]c(CNc2cccc(C(=O)NCc3ccccc3)c2)n1 | 2.3 | – | 63
O=C(CNc1ccccc1)N/N=C/c1ccncc1 | 0.64 | – | –
O=C(NCc1ccccc1)Nc1cccc(NCc2nc(-c3ccncc3)n[nH]2)c1 | 0.03 | 2.7 | 92
Clc1cccc(OCc2n[nH]c(-c3ccncc3)n2)c1 | 1.7 | – | 86
COc1cccc(NCc2nc(-c3ccncc3)n[nH]2)c1 | 0.72 | > 10 | 92
O=C(NCc1ccccc1)c1cccc(NCc2nnc(-c3ccncc3)n2Cc2ccccc2)c1 | 3.2 | – | 87
CC(C)n1c(CNc2cccc(C(=O)NCc3ccccc3)c2)nnc1-c1ccncc1 | 0.26 | 4.8 | 50
COCCn1c(CNc2cccc(C(=O)NCc3ccccc3)c2)nnc1-c1ccncc1 | 0.32 | 7.4 | 57
O=C(CNc1cccc(Cl)c1)N/N=C/c1ccncc1 | 0.3 | – | –
O=C(NCc1ccccc1)c1cccc(NCc2cc(-c3ccncc3)on2)c1 | 0.018 | 2.5 | 84
NS(=O)(=O)c1ccc(NCc2nc(-c3ccncc3)n[nH]2)cc1 | 0.36 | > 10 | 20
O=C(NCc1ccccc1Cl)c1cccc(NCc2nnc(-c3ccncc3)[nH]2)c1 | 0.05 | 1.1 | 97
O=C(Nc1nc(-c2ccncc2)n[nH]1)c1ccc(Cl)cc1 | > 10 | – | 27
CC(=O)Nc1cccc(NCc2nc(-c3ccncc3)n[nH]2)c1 | 0.07 | – | 77
Clc1ccccc1NCc1nc(-c2ccncc2)n[nH]1 | 1.7 | > 10 | 100
c1ccc(CCOc2cccc(NCc3nc(-c4ccncc4)n[nH]3)c2)cc1 | 2.7 | > 10 | 96
O=C(CNc1ccccc1Cl)N/N=C/c1ccncc1 | 2.6 | – | –
O=C(NCc1ccccc1)c1cccc(NCc2c[nH]c(-c3ccncc3)n2)c1 | 0.16 | – | 93
COc1cccc(NCC(=O)N/N=C2\CCCc3cnccc32)c1 | 0.39 | > 10 | –
O=C(CNc1cccc(OCc2ccccc2)c1)N/N=C1\CCCc2cnccc21 | > 10 | > 10 | –
Clc1ccc(SCc2nc(-c3ccncc3)n[nH]2)cc1 | 0.59 | – | 100
O=C(CNc1ccccc1)N/N=C1\CCCc2cnccc21 | 1.8 | – | –
COc1ccccc1NCC(=O)N/N=C/c1ccncc1 | 7.4 | – | –
Cn1c(CNc2cccc(C(=O)NCc3ccccc3C(F)(F)F)c2)nnc1-c1ccncn1 | 0.72 | > 10 | 63

Structure (SMILES) | IC50 [1] [µM] | IC50 [2] [µM] | inhibition at 10 µM (CYP3A4) [%]
CCOc1cccc(NCC(=O)N/N=C2\CCCc3cnccc32)c1 | 5.7 | > 10 | –
O=C(NCc1ccccc1)c1cccc(NCc2nc(-c3ccncc3)c[nH]2)c1 | 0.0073 | 3.6 | 100
Clc1ccc(NCc2nc(-c3ccncc3)n[nH]2)cc1 | 0.094 | > 10 | 97
O=C(NCc1ccccc1)c1cccc(NCc2[nH]nc(-c3ccncc3)c2-c2ccccc2)c1 | 0.17 | – | 87
c1ccc(NCc2nc(-c3ccncc3)n[nH]2)cc1 | 0.63 | > 10 | 94
O=C(CNc1cccc(C(=O)N2CCOCC2)c1)N/N=C1\CCCc2cnccc21 | > 10 | – | –
Clc1ccc(NCCc2nc(-c3ccncc3)n[nH]2)cc1 | 0.9 | – | 93
COc1ccccc1NCc1nc(-c2ccncc2)n[nH]1 | 1.8 | > 10 | 93
CC(=O)Nc1cc(NCc2nc(-c3ccncc3)n[nH]2)ccc1Cl | 0.074 | 8.3 | 80
Clc1ccc(CSc2nc(-c3ccncc3)n[nH]2)cc1 | 1.9 | – | 97
Cn1c(CNc2cccc(C(=O)NCc3c(F)cccc3F)c2)nnc1-c1ccncn1 | 1.9 | > 10 | 24
Clc1ccc(CNc2nc(-c3ccncc3)n[nH]2)cc1 | 0.27 | – | 96
CCCn1c(CNc2cccc(C(=O)NCc3c(F)cccc3F)c2)nnc1-c1ccncn1 | 0.19 | 0.25 | 51
Cn1c(CNc2cccc(C(=O)NCc3ccccc3Cl)c2)nnc1-c1ccncc1 | 1.6 | 8.7 | 54
COc1ccc(NCC(=O)N/N=C/c2ccncc2)cc1 | 3.7 | – | –
O=C(Cc1ccccc1)Nc1cc(NCc2nc(-c3ccncc3)n[nH]2)ccc1Cl | 0.018 | 1.7 | 90
COc1cccc(CNC(=O)c2cccc(NCc3nnc(-c4ccncc4)[nH]3)c2)c1 | 0.02 | 3.2 | 95
O=C(NCc1c(F)cccc1F)c1cccc(NCc2nnc3n2CCOc2cnccc2-3)c1 | 0.19 | – | 49
O=C(CNc1ccc(Cl)cc1)N/N=C/c1ccncc1 | 0.54 | – | –
O=C(CNc1cccc(Oc2ccccc2)c1)N/N=C1\CCCc2cnccc21 | 6.2 | > 10 | –
CNc1cc(-c2nnc(CNc3cccc(C(=O)NCc4c(F)cccc4F)c3)n2C)ccn1 | 7.4 | – | 29
O=C(NCc1ccccc1)c1cccc(NCc2ccn(-c3ccncc3)c2)c1 | 0.34 | – | 95
Cn1c(CNc2cccc(C(=O)NCc3c(F)cccc3F)c2)nnc1-c1ccnc(NCCc2ccccc2)c1 | > 10 | – | 69
O=S(=O)(NCc1ccccc1)c1cccc(NCc2nc(-c3ccncc3)n[nH]2)c1 | 0.098 | – | 83
O=C(CNc1cccc(C(=O)NCc2ccccc2)c1)N/N=C1\CCCc2cnccc21 | 0.058 | > 10 | –
